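The compound was tested at five concentrations on cells cultured in 96-well plates, with a 48-hour exposure period. Here, GI50 denotes the concentration required for 50% inhibition of growth.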 Active and inactive are the calls of the source. No stated cut-off is given here; in the data, active = GI50 up to about 1.1 µM and inactive = higher.
Experiments:
Test in all cases: growth of human tumour cells (NCI), 48 h
EKVX = test system: EKVX
NCI-H23 = test system: NCI-H23
ACHN = test system: ACHN
SR = test system: SR
KM12 = test system: KM12
NCI-H522 = test system: NCI-H522
LOX IMVI = test system: LOX IMVI
OVCAR-3 = test system: OVCAR-3
SK-MEL-28 = test system: SK-MEL-28
M14 = test system: M14
Malme-3M = test system: Malme-3M
RXF 393 = test system: RXF 393
RPMI-8226 = test system: RPMI-8226
A549 = test system: A549
OVCAR-5 = test system: OVCAR-5
MDA-MB-231 = test system: MDA-MB-231
UO-31 = test system: UO-31
NCI/ADR-RES = test system: NCI/ADR-RES
OVCAR-8 = test system: OVCAR-8
HCT-15 = test system: HCT-15
SK-MEL-2 = test system: SK-MEL-2
MDA-MB-435 = test system: MDA-MB-435
HOP-62 = test system: HOP-62
K562 = test system: K562
786-0 = test system: 786-0
NCI-H226 = test system: NCI-H226
CAKI-1 = test system: CAKI-1
OVCAR-4 = test system: OVCAR-4
BT-549 = test system: BT-549
U-251 = test system: U-251
UACC-257 = test system: UACC-257
UACC-62 = test system: UACC-62
A498 = test system: A498
SNB-75 = test system: SNB-75
SW-620 = test system: SW-620
SK-OV-3 = test system: SK-OV-3
Hs-578T = test system: Hs-578T
SN12C = test system: SN12C
MDA-N = test system: MDA-N
NCI-H460 = test system: NCI-H460
HCT-116 = test system: HCT-116
TK-10 = test system: TK-10
PC-3 = test system: PC-3
SNB-19 = test system: SNB-19
T47D = test system: T47D
DU-145 = test system: DU-145
SF-268 = test system: SF-268
COLO 205 = test system: COLO 205
SF-295 = test system: SF-295
MCF7 = test system: MCF7
MOLT-4 = test system: MOLT-4
HCC 2998 = test system: HCC 2998
SK-MEL-5 = test system: SK-MEL-5
HT-29 = test system: HT-29
HL-60 = test system: HL-60
IGROV-1 = test system: IGROV-1
HOP-92 = test system: HOP-92
SF-539 = test system: SF-539
CCRF-CEM = test system: CCRF-CEM

Measured: GI50

O=C(O)C/N=C(\C(=N\CC(=O)O)c1ccccc1)c1ccccc1
> 100 µM: HCT-15
inactive: EKVX > 100 µM | NCI-H23 > 100 µM | ACHN > 100 µM | SR > 100 µM | KM12 > 100 µM | NCI-H522 > 100 µM | LOX IMVI > 100 µM | OVCAR-3 > 100 µM | SK-MEL-28 > 100 µM | M14 > 100 µM | Malme-3M > 100 µM | RXF 393 > 100 µM | RPMI-8226 85.7 µM | A549 > 100 µM | OVCAR-5 > 100 µM | MDA-MB-231 > 100 µM | UO-31 90.2 µM | NCI/ADR-RES > 100 µM | OVCAR-8 > 100 µM | SK-MEL-2 > 100 µM | MDA-MB-435 > 100 µM | HOP-62 > 100 µM | K562 > 100 µM | 786-0 > 100 µM | NCI-H226 > 100 µM | CAKI-1 > 100 µM | OVCAR-4 > 100 µM | BT-549 > 100 µM | U-251 > 100 µM | UACC-257 > 100 µM | UACC-62 > 100 µM | A498 > 100 µM | SNB-75 > 100 µM | SW-620 > 100 µM | SK-OV-3 > 100 µM | Hs-578T > 100 µM | SN12C > 100 µM | MDA-N > 100 µM | NCI-H460 > 100 µM | HCT-116 > 100 µM | TK-10 > 100 µM | PC-3 > 100 µM | SNB-19 > 100 µM | T47D 68.5 µM | DU-145 > 100 µM | SF-268 > 100 µM | COLO 205 > 100 µM | SF-295 > 100 µM | MCF7 > 100 µM | MOLT-4 > 100 µM | HCC 2998 > 100 µM

COc1ccc(/C=C2\C[C@H]3[C@@H]4CCC5=C/C(=N/O)CC[C@]5(C)[C@H]4CC[C@]3(C)\C2=N\O)cc1
active: HL-60 < 0.01 µM
10.6 µM: HCT-15
inactive: EKVX 12.5 µM | SK-MEL-5 11 µM | NCI-H23 19.5 µM | ACHN 5.52 µM | SR 3.99 µM | KM12 12.2 µM | NCI-H522 14.9 µM | LOX IMVI 17.9 µM | OVCAR-3 10.2 µM | SK-MEL-28 61.8 µM | M14 12.4 µM | Malme-3M 34.1 µM | HT-29 6.85 µM | RXF 393 7.1 µM | RPMI-8226 5.12 µM | A549 5.01 µM | OVCAR-5 36.3 µM | MDA-MB-231 31.6 µM | UO-31 4.53 µM | NCI/ADR-RES 8.18 µM | OVCAR-8 9.42 µM | SK-MEL-2 22.2 µM | MDA-MB-435 26.5 µM | HOP-62 34.4 µM | K562 6.47 µM | 786-0 13.1 µM | NCI-H226 19.1 µM | CAKI-1 38.3 µM | OVCAR-4 25.7 µM | BT-549 15.9 µM | U-251 25.3 µM | UACC-257 30.1 µM | UACC-62 14.5 µM | SNB-75 19.7 µM | SW-620 36.9 µM | SK-OV-3 42.7 µM | Hs-578T 28.5 µM | SN12C 14.1 µM | MDA-N 15.6 µM | NCI-H460 6.59 µM | HCT-116 5.21 µM | IGROV-1 37.3 µM | TK-10 37.1 µM | PC-3 8.17 µM | SNB-19 20 µM | T47D 7.98 µM | DU-145 13.4 µM | SF-268 16.9 µM | HOP-92 17.3 µM | COLO 205 14.5 µM | SF-295 12.6 µM | MCF7 5.01 µM | MOLT-4 6.7 µM | HCC 2998 15.8 µM

COc1cc(/C=C2\CCC/C(=C\c3cc(OC)c(O)c(OC)c3)C2=O)cc(OC)c1O
inactive: EKVX 4.5 µM | SK-MEL-5 2.28 µM | NCI-H23 1.35 µM | ACHN 1.22 µM | SR 3.8 µM | KM12 1.38 µM | NCI-H522 1.53 µM | LOX IMVI 1.91 µM | SK-MEL-28 2.69 µM | M14 1.88 µM | Malme-3M 1.51 µM | HT-29 12.9 µM | RXF 393 1.43 µM | RPMI-8226 1.55 µM | A549 1.67 µM | OVCAR-5 2.05 µM | MDA-MB-231 2.71 µM | HL-60 1.72 µM | UO-31 1.69 µM | NCI/ADR-RES 2.19 µM | OVCAR-8 1.98 µM | SK-MEL-2 2.4 µM | MDA-MB-435 1.84 µM | HOP-62 1.8 µM | SF-539 2.16 µM | K562 4.81 µM | 786-0 1.7 µM | NCI-H226 10.4 µM | CAKI-1 1.84 µM | OVCAR-4 3.16 µM | BT-549 1.53 µM | U-251 1.36 µM | UACC-257 3.42 µM | UACC-62 1.38 µM | A498 1.41 µM | SNB-75 9.86 µM | SW-620 3.37 µM | SK-OV-3 1.81 µM | Hs-578T 3.75 µM | SN12C 2.32 µM | MDA-N 1.79 µM | NCI-H460 2.22 µM | HCT-116 1.32 µM | IGROV-1 1.22 µM | TK-10 5.33 µM | PC-3 3.35 µM | SNB-19 1.81 µM | T47D 2.79 µM | DU-145 2.39 µM | SF-268 2.61 µM | COLO 205 9.38 µM | SF-295 2.03 µM | MCF7 3.12 µM | MOLT-4 4.38 µM | HCC 2998 1.35 µM
1.52 µM: HCT-15
active: OVCAR-3 1.07 µM | CCRF-CEM 0.43 µM

— ChEMBL document CHEMBL1201862, “PubChem BioAssay data set” (2004)
